# From patent publication US20110123483A1, “HMGB1 FOR CANCER TREATMENT” (DEUTSCHES KREBSFORSCHUNGSZENTRUM, priority 2009, published 2011)
# How the values were obtained:
# [1] = test system: non-immortalized human astrocytic cells; experiment: Cytotoxicity assay, cell survival by crystal violet staining; format: cell-based; details: 72 h (FIG. 1B)
# Description: U251 glioblastoma cells and non-immortalized human astrocytic cells (ScienCell, USA) were maintained in DMEM (Life Technologies) containing 10% FCS, 4.5 g/L glucose, glutamine, 110 mg/L sodium pyruvate, and 1% penicillin-streptomycin (Life Technologies) and in astrocyte medium (ScienCell) containing 2% FBS (fetal bovine serum) and 1% penicillin-streptomycin at 37° C. and 5% CO2. For the generation of pseudo rho zero cells (0.0), U251 MG cells were treated with low dose (250 ng/ml) ethidiumbromide for 3 months. The cells were supplemented with DMEM (10% FCS, 1% P/S) containing 50 μg/ml L-pyruvate and 5 mg/ml uridine (King and Attardi, 1989).
# 20,000 U251MG glioblastoma cells or human astrocytic cells (ScienCell) were plated into 96-well plates. After 24 h cells were treated with rhHMGB1 (Sigma Aldrich) or rat recombinant HMGB1 (generously provided by Angelika Bierhaus, Heidelberg, Germany), and TRAIL (for 24 h) or Temozolomide (for 72 h) alone or in combination, respectively. Cell survival was measured by crystal violet staining as described previously (Gdynia et al., 2007). Cell proliferation was assessed by seeding 50,000 U251 MG cells in 6 cm culture plates and treatment with rhHMGB1, followed by counting the cells in a Neubauer chamber at day 0, 2, 4 and 5.
# [2] = test system: NCH421 K glioblastoma stem-cell-like cells; experiment: Trypan blue vital stain, counting blue cells in a Neubauer chamber; format: cell-based; details: 80 nM, 24 h, p<0.05
# Description: Trypan blue influx into NCH421 K glioblastoma multiforme stem-cell-like cells was […] culture flasks and then incubating them for 10 min with 1:1,000 trypan blue solution. […] Glioblastoma stem-cell-like cell line NCH421K was maintained in BIT (bovine serum albumine, insulin, transferring)-medium (DMEM HAMS F12+1% P/S+1% L-glutamin+10 ml BIT+EGF (20 ng/ml)+BFGF (20 ng/ml)).
# U251 MG cells = experiment: ROS measurement by DCF fluorescence and FACS analysis; format: cell-based, human; details: 40 nM, 24 h (FIG. 3A)
# Description: For measurement of reactive oxygen species (ROS) and mitochondrial membrane potential (MMP) 1.5×10^6 U251 MG cells were seeded in 6 cm plates, treated with 40 nM rhHMGB1 for 24 h and incubated with the fluorescent DiOC6 (3,3′-dihexyloxacarbocyanine iodide, 40 nmol/ll, Sigma Chemical Co., St. Louis, Mo.) or with the fluorescent H2DCF-DA (dichlorodihydrofluorescein diacetate, 10 μM, Invitrogen) for 1 h at 37° C., respectively. The cells were trypsinized and centrifuged at 2,000 rpm for 5 min at 4° C. The supernatant was discarded and the pellet was washed 2× with sterile Dulbecco's PBS containing 0.1% fetal calf serum on ice and again centrifuged at 2,000 rpm for 5 min at 4° C. The pellet was resuspended in 500 μl sterile Dulbecco's PBS on ice. Oxidation of H2DCF to DCF by ROS and DiOC6 accumulation in mitochondria were measured immediately at FL-1 by flow cytometry using a FACScalibur (Beckton Dickinson, Heidelberg, Germany). Cell cycle was determined by measurement of priopidiumiodide (PI)-uptake of the cells according to standard procedures. Briefly, the cells were harvested and washed twice in sterile Dulbecco's PBS on ice, spun down at 2,000 rpm for 5 min at 4° C. and fixed with 70% ethanol for 30 min at 4° C. Contaminating RNA was eliminated by treatment with 100 μg/ml of RNase A, then 50 μg/ml PI was added and DNA content was measured immediately at FI-2. […]
substance,measurement,setting,value
rhHMGB1: recombinant human High Mobility Group B1 protein (Sigma Aldrich),susceptibility to rhHMGB1-induced cell death,[1],not human non-immortalized astrocytes were susceptible
same,trypan blue influx versus control,[2],7±1 fold increase
same,generation of radical oxygen species (ROS),U251 MG cells,strong generation
